Assay results: patent publication US10464947B2 (Incyte Corporation, priority 2013, dated 2019)

The compounds below were run on KMS.12.BM cells (assay: KMS.12.BM Cell Viability Assay (Example B1)). Settings: 3 days, Cell Titer-GLO, read-out: KMS cellular IC50.
Assay type: cell-based, human
Method: KMS.12.BM cell line (human myeloma) was purchased from JCRB (Osaka, Japan) and maintained in RPMI with 10% FBS culture medium. To measure the cytotoxic activity of the compounds through ATP quantitation, the KMS.12.BM cells are plated in the RPMI culture medium at 5000 cells/well/per 100 μL into a 96-well polystyrene clear black tissue culture plate (Greiner-bio-one through VWR, NJ), in the presence or absence of a concentration range of test compounds. After 3 days, […] Cell Titer-GLO Luminescent (Promega, Madison, Wis.) cell culture agent is added to each well for 10 min. at room temperature to stabilize the luminescent signal. This determines the number of viable cells in culture based on quantitation of the ATP present, which signals the presence of metabolically active cells.
Cc1noc(C)c1-c1ccc2[nH]c(=O)n3c2c1OCC3C1CCCO1 (single isomer, unassigned) [Example 18B, 7-(3,5-Dimethylisoxazol-4-yl)-4-(tetrahydrofuran-2-yl)-4,5-dihydroimidazo[1,5,4-de][1,4]benzoxazin-2(1H)-one] was tested, and the IC50 was < 1 µM. In the case of Cc1noc(C)c1-c1ccc2nc(NC(C)CO)n3c2c1OCC3c1ccccc1 (single isomer, unassigned) [Example 31, 2-{[7-(3,5-Dimethylisoxazol-4-yl)-4-phenyl-4,5-dihydroimidazo[1,5,4-de][1,4]benzoxazin-2-yl]amino}propan-1-ol], the IC50 is reported as < 1 µM. In the case of Cc1noc(C)c1-c1ccc2[nH]c(=O)n3c2c1OC(CO)C3c1ccccn1 (single isomer, unassigned) [Example 62C, 7-(3,5-Dimethylisoxazol-4-yl)-5-(hydroxymethyl)-4-pyridin-2-yl-4,5-dihydroimidazo[1,5,4-de][1,4]benzoxazin-2(1H)-one], the IC50 is reported as < 1 µM.

Same assay, conditions: Homo sapiens, 72 h, 3 days, Cell Titer-GLO, read-out: KMS cellular IC50
Compound Cc1noc(C)c1-c1ccc2[nH]c(=O)n3c2c1OC(C(=O)NCCO)C3c1ccccc1 (single isomer, unassigned) [Example 48B, 7-(3,5-Dimethylisoxazol-4-yl)-N-(2-hydroxyethyl)-2-oxo-4-phenyl-1,2,4,5-tetrahydroimidazo[1,5,4-de][1,4]benzoxazine-5-carboxamide] has an IC50 of 1 to 10 µM. In the case of Cc1noc(C)c1-c1ccc2nc(N3CCN(C)C(=O)C3)n3c2c1OC[C@@H]3c1ccccn1 [Example 166, 4-[(4S)-7-(3,5-dimethylisoxazol-4-yl)-4-pyridin-2-yl-4,5-dihydroimidazo[1,5,4-de][1,4]benzoxazin-2-yl]-1-methylpiperazin-2-one], the IC50 is reported as < 1 µM. In the case of Cc1noc(C)c1-c1cc(-c2cccnc2)c2[nH]c(=O)n3c2c1OCC3c1ccccc1 (centres unmarked) [Example 52, 7-(3,5-Dimethylisoxazol-4-yl)-4-phenyl-9-pyridin-3-yl-4,5-dihydroimidazo[1,5,4-de][1,4]benzoxazin-2(1H)-one], the IC50 is reported as < 1 µM. For Cc1noc(C)c1-c1ccc2nc(N3CCC(NC(=O)C(C)C)CC3)n3c2c1OCC3c1ccccn1 (centres unmarked) [Example 244], the IC50 was < 1 µM. For Cc1noc(C)c1-c1ccc2nc(N3CCN(CCO)CC3)n3c2c1OC[C@@H]3c1ccccn1 [Example 177, 2-{4-[(4S)-7-(3,5-dimethylisoxazol-4-yl)-4-pyridin-2-yl-4,5-dihydroimidazo[1,5,4-de][1,4]benzoxazin-2-yl]piperazin-1-yl}ethanol], the IC50 was < 1 µM. In the case of CN[C@@H]1CCN(c2nc3ccc(-c4c(C)noc4C)c4c3n2[C@@H](c2ccccn2)CO4)C1 [Example 181A, (3R)-1-[(4S)-7-(3,5-dimethylisoxazol-4-yl)-4-pyridin-2-yl-4,5-dihydroimidazo[1,5,4-de][1,4]benzoxazin-2-yl]-N-methylpyrrolidin-3-amine], the IC50 is reported as < 1 µM. With Cc1noc(C)c1-c1ccc2nc(N3CCNC(=O)C3)n3c2c1OC[C@@H]3c1ccccn1 [Example 172, 4-[(4S)-7-(3,5-dimethylisoxazol-4-yl)-4-pyridin-2-yl-4,5-dihydroimidazo[1,5,4-de][1,4]benzoxazin-2-yl]piperazin-2-one] the IC50 was < 1 µM. For Cc1noc(C)c1-c1ccc2nc(N3CCCCC3)n3c2c1OCC3c1ccccc1 (centres unmarked) [Example 56, 7-(3,5-Dimethylisoxazol-4-yl)-4-phenyl-2-piperidin-1-yl-4,5-dihydroimidazo[1,5,4-de][1,4]benzoxazine], the IC50 was < 1 µM. In the case of CCS(=O)(=O)N[C@@H]1CCN(c2nc3ccc(-c4c(C)noc4C)c4c3n2[C@@H](c2ccccn2)CO4)C1 [Example 214, N-{(3R)-1-[(4S)-7-(3,5-dimethylisoxazol-4-yl)-4-pyridin-2-yl-4,5-dihydroimidazo[1,5,4-de][1,4]benzoxazin-2-yl]pyrrolidin-3-yl}ethanesulfonamide], the IC50 is reported as < 1 µM. CNC(=O)[C@@H]1CCN(c2nc3ccc(-c4c(C)noc4C)c4c3n2[C@@H](c2ccccn2)CO4)C1 [Example 249, (3R)-1-[(4S)-7-(3,5-dimethylisoxazol-4-yl)-4-pyridin-2-yl-4,5-dihydroimidazo[1,5,4-de][1,4]benzoxazin-2-yl]-N-methylpyrrolidine-3-carboxamide] was tested, and the IC50 was < 1 µM. In the case of Cc1noc(C)c1-c1ccc2nc(N3CCN(S(C)(=O)=O)CC3)n3c2c1OC[C@@H]3c1ccccn1 [Example 173, (4S)-7-(3,5-dimethylisoxazol-4-yl)-2-[4-(methylsulfonyl)piperazin-1-yl]-4-pyridin-2-yl-4,5-dihydroimidazo[1,5,4-de][1,4]benzoxazine], the IC50 is reported as < 1 µM. With Cc1noc(C)c1-c1ccc2nc(N3CC[C@@H](NC(=O)CC#N)C3)n3c2c1OC[C@@H]3c1ccccn1 [Example 211, 2-cyano-N-{(3R)-1-[(4S)-7-(3,5-dimethylisoxazol-4-yl)-4-pyridin-2-yl-4,5-dihydroimidazo[1,5,4-de][1,4]benzoxazin-2-yl]pyrrolidin-3-yl}acetamide] the IC50 was < 1 µM. CCC(=O)N[C@@H]1CCN(c2nc3ccc(-c4c(C)noc4C)c4c3n2[C@@H](c2ccccn2)CO4)C1 [Example 208, N-{(3R)-1-[(4S)-7-(3,5-dimethylisoxazol-4-yl)-4-pyridin-2-yl-4,5-dihydroimidazo[1,5,4-de][1,4]benzoxazin-2-yl]pyrrolidin-3-yl}propanamide] was tested, and the IC50 was < 1 µM. In the case of Cc1noc(C)c1-c1ccc2nc(C3CCN(C(=O)C4CC4)CC3)n3c2c1OC[C@@H]3c1ccccn1 [Example 111, (4S)-2-[1-(cyclopropylcarbonyl)piperidin-4-yl]-7-(3,5-dimethylisoxazol-4-yl)-4-pyridin-2-yl-4,5-dihydroimidazo[1,5,4-de][1,4]benzoxazine], the IC50 is reported as < 1 µM. With Cc1noc(C)c1-c1ccc2nc(N3CC(NC(=O)C4CC4)C3)n3c2c1OC[C@@H]3c1ccccn1 [Example 235, N-{1-[(4S)-7-(3,5-dimethylisoxazol-4-yl)-4-pyridin-2-yl-4,5-dihydroimidazo[1,5,4-de][1,4]benzoxazin-2-yl]azetidin-3-yl}cyclopropanecarboxamide] the IC50 was < 1 µM. For Cc1noc(C)c1-c1ccc2nc(N3CC[C@H](N(C)C)C3)n3c2c1OC[C@@H]3c1ccccn1 [Example 180B, (3S)-1-[(4S)-7-(3,5-dimethylisoxazol-4-yl)-4-pyridin-2-yl-4,5-dihydroimidazo[1,5,4-de][1,4]benzoxazin-2-yl]-N,N-dimethylpyrrolidin-3-amine], the IC50 was < 1 µM. For Cc1noc(C)c1-c1cc(CNc2ccccc2)c2[nH]c(=O)n3c2c1OCC3c1ccccn1 (centres unmarked) [Example 262, 9-(anilinomethyl)-7-(3,5-dimethylisoxazol-4-yl)-4-pyridin-2-yl-4,5-dihydroimidazo[1,5,4-de][1,4]benzoxazin-2(1H)-one], the IC50 was < 1 µM. Cc1noc(C)c1-c1ccc2nc(N3CCC[C@H](O)C3)n3c2c1OC[C@@H]3c1ccccn1 [Example 170B, (3S)-1-[(4S)-7-(3,5-dimethylisoxazol-4-yl)-4-pyridin-2-yl-4,5-dihydroimidazo[1,5,4-de][1,4]benzoxazin-2-yl]piperidin-3-ol] was tested, and the IC50 was < 1 µM. CCOC(=O)N1CCN(c2nc3ccc(-c4c(C)noc4C)c4c3n2[C@@H](c2ccccn2)CO4)CC1 [Example 167, ethyl 4-[(4S)-7-(3,5-dimethylisoxazol-4-yl)-4-pyridin-2-yl-4,5-dihydroimidazo[1,5,4-de][1,4]benzoxazin-2-yl]piperazine-1-carboxylate] was tested, and the IC50 was < 1 µM. With Cc1noc(C)c1-c1ccc2nc(N3CC[C@@H](NC(=O)C4CC4)C3)n3c2c1OC[C@@H]3c1ccccn1 [Example 206, N-{(3R)-1-[(4S)-7-(3,5-dimethylisoxazol-4-yl)-4-pyridin-2-yl-4,5-dihydroimidazo[1,5,4-de][1,4]benzoxazin-2-yl]pyrrolidin-3-yl}cyclopropanecarboxamide] the IC50 was < 1 µM. For COCC(=O)NC1CCN(c2nc3ccc(-c4c(C)noc4C)c4c3n2[C@@H](c2ccccn2)CO4)CC1 [Example 241, N-{1-[(4S)-7-(3,5-dimethylisoxazol-4-yl)-4-pyridin-2-yl-4,5-dihydroimidazo[1,5,4-de][1,4]benzoxazin-2-yl]piperidin-4-yl}-2-methoxyacetamide], the IC50 was < 1 µM. Cc1noc(C)c1-c1cc(-c2ccnc(O)c2)c2[nH]c(=O)n3c2c1OC[C@@H]3c1ccccn1 [Example 260, (4S)-7-(3,5-dimethylisoxazol-4-yl)-9-(2-hydroxypyridin-4-yl)-4-pyridin-2-yl-4,5-dihydroimidazo[1,5,4-de][1,4]benzoxazin-2(1H)-one] gave an IC50 of 1 to 10 µM. In the case of CCC(=O)N1CCCN(c2nc3ccc(-c4c(C)noc4C)c4c3n2[C@@H](c2ccccn2)CO4)CC1 [Example 246, (4S)-7-(3,5-dimethylisoxazol-4-yl)-2-(4-propionyl-1,4-diazepan-1-yl)-4-pyridin-2-yl-4,5-dihydroimidazo[1,5,4-de][1,4]benzoxazine], the IC50 is reported as < 1 µM. For CNc1nc2ccc(-c3c(C)noc3C)c3c2n1C(c1ccccn1)CO3 (centres unmarked) [Example 186, 7-(3,5-dimethylisoxazol-4-yl)-N-methyl-4-pyridin-2-yl-4,5-dihydroimidazo[1,5,4-de][1,4]benzoxazin-2-amine], the IC50 was < 1 µM. With Cc1noc(C)c1-c1ccc2nc(N3CC(NC(=O)OC(C)(C)C)C3)n3c2c1OC[C@@H]3c1ccccn1 [Example 196, tert-butyl {1-[(4S)-7-(3,5-dimethylisoxazol-4-yl)-4-pyridin-2-yl-4,5-dihydroimidazo[1,5,4-de][1,4]benzoxazin-2-yl]azetidin-3-yl}carbamate] the IC50 was < 1 µM.

Same assay, conditions: Homo sapiens, KMS-12-BM, 72 h, 3 days, Cell Titer-GLO, read-out: KMS cellular IC50
Work on Cc1noc(C)c1-c1ccc2nc(NC(C)(C)CO)n3c2c1OCC3c1ccccc1 (centres unmarked) [Example 33, 2-{[7-(3,5-Dimethylisoxazol-4-yl)-4-phenyl-4,5-dihydroimidazo[1,5,4-de][1,4]benzoxazin-2-yl]amino}-2-methylpropan-1-ol] yielded an IC50 of 1 to 10 µM.
